Measurements: ChEMBL document CHEMBL1156808, “Synthesis and characterization of iodinated tetrahydroquinolines targeting the G protein-coupled estrogen receptor GPR30” (J Med Chem, 2010)

System: Muscle tissue
Experiment: Biodistribution in muscle of iv dosed NCr nu/nu mouse xenografted with GPR30 overexpressing human Hec50 cells after 2 hrs
Format: ADME, organism-based
Conditions: in vivo

Drug uptake: 0.52 % ID/g
SMILES: O=C(NCCc1ccc2c(c1)[C@@H]1C=CC[C@@H]1[C@H](c1cc3c(cc1Br)OCO3)N2)Nc1cccc([125I])c1
